Measured values: patent publication US20260028365A1 (BIOGEN MA INC., priority 2022, published 2026)
Where two headings read alike, the source gives them in different places.

How the values were obtained:
Tyk2 = Tyk2 (Homo sapiens (Human), UniProt P29597); experiment: pSTAT4 Cell Assay (MSD, NK92 cells); format: cell-based
JH2 domain of human Tyk2 = JH2 domain of human Tyk2 (Homo sapiens (Human), UniProt P29597); experiment: JH2 Biochemical Assay (TR-FRET probe displacement); format: binding
[1] = TR-FRET probe displacement, JH2 domain
[2] = JH2 domain of human Tyk2, TR-FRET probe displacement
[3] = TR-FRET probe displacement, JH2 domain of human Tyk2

Sequence of JH2 domain of human Tyk2 (P29597 575-876): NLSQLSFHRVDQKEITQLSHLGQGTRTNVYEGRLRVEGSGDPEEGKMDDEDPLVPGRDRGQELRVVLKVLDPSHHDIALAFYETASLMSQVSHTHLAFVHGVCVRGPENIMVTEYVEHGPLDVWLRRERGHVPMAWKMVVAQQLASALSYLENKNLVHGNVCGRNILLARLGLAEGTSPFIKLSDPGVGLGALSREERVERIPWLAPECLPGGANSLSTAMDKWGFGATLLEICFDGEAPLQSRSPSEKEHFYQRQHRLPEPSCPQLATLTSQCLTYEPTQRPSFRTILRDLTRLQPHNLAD
Sequence of Tyk2 (P29597 whole entry, the tested form may be a part): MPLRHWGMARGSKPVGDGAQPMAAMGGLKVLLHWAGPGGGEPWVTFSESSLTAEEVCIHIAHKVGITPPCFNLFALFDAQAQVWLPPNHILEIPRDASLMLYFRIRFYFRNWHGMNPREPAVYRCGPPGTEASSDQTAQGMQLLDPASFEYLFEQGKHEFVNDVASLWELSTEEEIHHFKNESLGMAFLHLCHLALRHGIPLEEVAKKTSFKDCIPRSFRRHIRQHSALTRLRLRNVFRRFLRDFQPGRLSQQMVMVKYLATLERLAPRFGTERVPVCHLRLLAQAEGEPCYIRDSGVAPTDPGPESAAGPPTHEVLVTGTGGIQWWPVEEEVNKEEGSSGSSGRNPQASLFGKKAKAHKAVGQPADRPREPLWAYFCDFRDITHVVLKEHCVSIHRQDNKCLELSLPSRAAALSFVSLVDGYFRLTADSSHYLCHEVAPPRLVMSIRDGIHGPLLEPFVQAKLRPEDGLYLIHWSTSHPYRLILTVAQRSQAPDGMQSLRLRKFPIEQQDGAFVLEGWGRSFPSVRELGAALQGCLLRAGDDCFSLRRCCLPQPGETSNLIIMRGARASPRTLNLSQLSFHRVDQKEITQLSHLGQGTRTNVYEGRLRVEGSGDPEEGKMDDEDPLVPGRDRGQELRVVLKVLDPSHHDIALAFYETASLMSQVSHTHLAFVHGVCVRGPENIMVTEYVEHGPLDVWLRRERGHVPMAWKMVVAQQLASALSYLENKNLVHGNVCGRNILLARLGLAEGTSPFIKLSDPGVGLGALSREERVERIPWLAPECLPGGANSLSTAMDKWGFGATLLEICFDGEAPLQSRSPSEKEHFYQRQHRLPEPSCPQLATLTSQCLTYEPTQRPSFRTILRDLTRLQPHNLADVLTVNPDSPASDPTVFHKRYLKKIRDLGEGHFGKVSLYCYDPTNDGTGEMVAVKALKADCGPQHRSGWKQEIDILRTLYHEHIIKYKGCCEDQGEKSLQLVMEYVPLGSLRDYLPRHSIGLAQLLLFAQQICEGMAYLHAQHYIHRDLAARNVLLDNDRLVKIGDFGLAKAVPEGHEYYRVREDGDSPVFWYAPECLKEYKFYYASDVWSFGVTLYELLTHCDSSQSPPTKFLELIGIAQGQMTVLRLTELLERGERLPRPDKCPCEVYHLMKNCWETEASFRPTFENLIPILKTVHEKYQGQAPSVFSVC

SMILES	IC50 (Tyk2)	IC50 (JH2 domain of human Tyk2; [1])	IC50 (Tyk2; MSD)	IC50 (JH2 domain of human Tyk2; [2])	IC50 (JH2 domain of human Tyk2; [3])
CC(=O)Nc1cc(Nc2cc(C)nc(C(C)(F)F)n2)c(-c2cnc(CN3CCCC3)cn2)cn1 [Example 791, N-(4-((2-(1,1-difluoroethyl)-6-methylpyrimidin-4-yl)amino)-5-(5-(pyrrolidin-1-ylmethyl)pyrazin-2-yl)pyridin-2-yl)acetamide]	≤ 10 nM	≤ 10 nM	–	–	–
COc1cccnc1COc1cnc(NC(C)=O)cc1Nc1cc(C)nc(C(C)(F)F)n1 [Example 472, N-(4-((2-(1,1-difluoroethyl)-6-methylpyrimidin-4-yl)amino)-5-((3-methoxypyridin-2-yl)methoxy)pyridin-2-yl)acetamide]	–	–	100 to 1000 nM	10 to 100 nM	–
CO[C@@H](C)COc1cnc(NC(C)=O)cc1Nc1cc(OC2CC2)nc(C(C)(F)F)n1 [Example 299, (S)-N-(4-((6-cyclopropoxy-2-(1,1-difluoroethyl)pyrimidin-4-yl)amino)-5-(2-methoxypropoxy)pyridin-2-yl)acetamide]	–	–	≤ 10 nM	–	≤ 10 nM
COC1(C)CN(c2ccc(-c3cnc(NC(C)=O)cc3Nc3ccnc(C(C)(F)F)n3)nn2)C1 [Example 874, N-(4-((2-(1,1-difluoroethyl)pyrimidin-4-yl)amino)-5-(6-(3-methoxy-3-methylazetidin-1-yl)pyridazin-3-yl)pyridin-2-yl)acetamide]	≤ 10 nM	≤ 10 nM	–	–	–
CC(=O)Nc1cc(Nc2cc(C)nc(C(C)(F)F)n2)c(-c2ncns2)cn1 [Example 235, N-(4-((2-(1,1-difluoroethyl)-6-methylpyrimidin-4-yl)amino)-5-(1,2,4-thiadiazol-5-yl)pyridin-2-yl)acetamide]	–	–	≤ 10 nM	–	≤ 10 nM
COc1nccc(-c2cnc(NC(C)=O)cc2Nc2cc(C)nc(C(C)(F)F)n2)n1 [Example 179, N-(4-((2-(1,1-difluoroethyl)-6-methylpyrimidin-4-yl)amino)-5-(2-methoxypyrimidin-4-yl)pyridin-2-yl)acetamide]	–	–	≤ 10 nM	–	≤ 10 nM
CCn1ccc(-c2cnc(NC(C)=O)cc2Nc2cc(C)nc(C(C)(F)F)n2)n1 [Example 613, N-(4-((2-(1,1-difluoroethyl)-6-methylpyrimidin-4-yl)amino)-5-(1-ethyl-1H-pyrazol-3-yl)pyridin-2-yl)acetamide]	–	–	≤ 10 nM	≤ 10 nM	–
[2H]C([2H])([2H])Oc1cnc(NC(C)=O)cc1Nc1cc(OC2CC2)nc(C(C)(F)F)n1 [Example 415, N-(4-((6-cyclopropoxy-2-(1,1-difluoroethyl)pyrimidin-4-yl)amino)-5-(methoxy-d3)pyridin-2-yl)acetamide]	–	–	≤ 10 nM	≤ 10 nM	–
CC(=O)Nc1cc(Nc2cc(C)nc(C(C)(F)F)n2)c(-c2cc(C(C)C)ncn2)cn1 [Example 245, N-(4-((2-(1,1-difluoroethyl)-6-methylpyrimidin-4-yl)amino)-5-(6-isopropylpyrimidin-4-yl)pyridin-2-yl)acetamide]	–	–	10 to 100 nM	–	≤ 10 nM
CC(=O)Nc1cc(Nc2cc(C)nc(C(C)(F)F)n2)c(OC[C@]23CO[C@](CF)(C2)C3)cn1 [Example 421, N-(4-((2-(1,1-difluoroethyl)-6-methylpyrimidin-4-yl)amino)-5-(((1r,4s)-1-(fluoromethyl)-2-oxabicyclo[2.1.1]hexan-4-yl)methoxy)pyridin-2-yl)acetamide]	–	–	10 to 100 nM	≤ 10 nM	–
CC(=O)Nc1cc(Nc2cc(C)nc(C(C)(F)F)n2)c(C)cn1 [Example 41, N-(4-((2-(1,1-difluoroethyl)-6-methylpyrimidin-4-yl)amino)-5-methylpyridin-2-yl)acetamide]	–	–	100 to 1000 nM	–	10 to 100 nM
CC(=O)Nc1cc(Nc2cc(C)nc(C34COC(C)(C3)C4)n2)c(-c2ccn(C)n2)cn1 [Example 554, N-(5-(1-methyl-1H-pyrazol-3-yl)-4-((6-methyl-2-(1-methyl-2-oxabicyclo[2.1.1]hexan-4-yl)pyrimidin-4-yl)amino)pyridin-2-yl)acetamide]	–	–	≥ 1000 nM	10 to 100 nM	–
COc1cnc(NC(C)=O)cc1Nc1cc(-c2cnc(N3CCOCC3)nc2)nc(C(C)(F)F)n1 [Example 390, N-(4-((2-(1,1-difluoroethyl)-2′-morpholino-[4,5′-bipyrimidin]-6-yl)amino)-5-methoxypyridin-2-yl)acetamide]	–	–	100 to 1000 nM	10 to 100 nM	–
CCc1cc(Nc2cc(NC(C)=O)ncc2-c2nnc(C)o2)nc(C(C)(F)F)n1 [Example 168, N-(4-((2-(1,1-difluoroethyl)-6-ethylpyrimidin-4-yl)amino)-5-(5-methyl-1,3,4-oxadiazol-2-yl)pyridin-2-yl)acetamide]	–	–	10 to 100 nM	–	≤ 10 nM
CC(=O)Nc1cc(Nc2cc(C)nc(C(C)(F)F)n2)c(OCc2ncc(C3CC3)o2)cn1 [Example 342, N-(5-((5-cyclopropyloxazol-2-yl)methoxy)-4-((2-(1,1-difluoroethyl)-6-methylpyrimidin-4-yl)amino)pyridin-2-yl)acetamide]	–	–	100 to 1000 nM	–	≤ 10 nM
CC(=O)Nc1cc(Nc2cc(C)nc(C(C)(F)F)n2)c(Oc2cncc(C)n2)cn1 [Example 98, N-(4-((2-(1,1-difluoroethyl)-6-methylpyrimidin-4-yl)amino)-5-((6-methylpyrazin-2-yl)oxy)pyridin-2-yl)acetamide]	–	–	≥ 1000 nM	–	≥ 1000 nM

SMILES	IC50 (Tyk2)	IC50 (JH2 domain of human Tyk2; [1])	IC50 (Tyk2; MSD)	IC50 (JH2 domain of human Tyk2; [2])	IC50 (JH2 domain of human Tyk2; [3])
CCOCCOc1cnc(NC(C)=O)cc1Nc1cc(C)nc(C(C)(F)F)n1 [Example 507, N-(4-((2-(1,1-difluoroethyl)-6-methylpyrimidin-4-yl)amino)-5-(2-ethoxyethoxy)pyridin-2-yl)acetamide]	–	–	≤ 10 nM	≤ 10 nM	–
COc1cc(-c2cnc(NC(C)=O)cc2Nc2ccnc(C(C)(F)F)n2)ncn1 [Example 193, N-(4-((2-(1,1-difluoroethyl)pyrimidin-4-yl)amino)-5-(6-methoxypyrimidin-4-yl)pyridin-2-yl)acetamide]	–	–	10 to 100 nM	–	≤ 10 nM
CCOc1cnc(NC(C)=O)cc1Nc1cc(C)cc(C23COC(C2)C3)n1 [Example 95, N-(4-((6-(2-oxabicyclo[2.1.1]hexan-4-yl)-4-methylpyridin-2-yl)amino)-5-ethoxypyridin-2-yl)acetamide]	–	–	100 to 1000 nM	–	10 to 100 nM
COCc1csc(-c2cnc(NC(C)=O)cc2Nc2cc(C)nc(C(C)(F)F)n2)n1 [Example 233, N-(4-((2-(1,1-difluoroethyl)-6-methylpyrimidin-4-yl)amino)-5-(4-(methoxymethyl)thiazol-2-yl)pyridin-2-yl)acetamide]	–	–	≤ 10 nM	–	≤ 10 nM
CC(=O)Nc1cc(Nc2cc(C)nc(C(C)(F)F)n2)c([C@@H]2CCCO2)cn1 (single isomer, unassigned) [Example 279, (S)—N-(4-((2-(1,1-difluoroethyl)-6-methylpyrimidin-4-yl)amino)-5-(tetrahydrofuran-2-yl)pyridin-2-yl)acetamide or (R)-N-(4-((2-(1,1-difluoroethyl)-6-methylpyrimidin-4-yl)amino)-5-(tetrahydrofuran-2-yl)pyridin-2-yl)acetamide]	–	–	100 to 1000 nM	–	10 to 100 nM
COCCNc1cncc(-c2cnc(NC(C)=O)cc2Nc2ccnc(C(C)(F)F)n2)n1 [Example 274, N-(4-((2-(1,1-difluoroethyl)pyrimidin-4-yl)amino)-5-(6-((2-methoxyethyl)amino)pyrazin-2-yl)pyridin-2-yl)acetamide]	–	–	10 to 100 nM	–	≤ 10 nM
CCOCCn1ccc(-c2cnc(NC(C)=O)cc2Nc2cc(C)nc(C(C)(F)F)n2)n1 [Example 229, N-(4-((2-(1,1-difluoroethyl)-6-methylpyrimidin-4-yl)amino)-5-(1-(2-ethoxyethyl)-1H-pyrazol-3-yl)pyridin-2-yl)acetamide]	–	–	≤ 10 nM	–	≤ 10 nM
CC(=O)Nc1cc(Nc2cc(C)nc(C(C)(F)F)n2)c(-c2cn3c(n2)CN(C)CC3)cn1 [Example 239, N-(4-((2-(1,1-difluoroethyl)-6-methylpyrimidin-4-yl)amino)-5-(7-methyl-5,6,7,8-tetrahydroimidazo[1,2-a]pyrazin-2-yl)pyridin-2-yl)acetamide]	–	–	≤ 10 nM	–	≤ 10 nM
COc1cnc(NC(C)=O)cc1Nc1cc(-c2ccc(F)c(C#N)c2)nc(C(C)(F)F)n1 [Example 394, N-(4-((6-(3-cyano-4-fluorophenyl)-2-(1,1-difluoroethyl)pyrimidin-4-yl)amino)-5-methoxypyridin-2-yl)acetamide]	–	–	100 to 1000 nM	≤ 10 nM	–
CNC(=O)Nc1cc(Nc2cc(C)nc(C(C)(F)F)n2)c(-c2ccc(C#N)cn2)cn1 [Example 520, 1-(5-cyano-4′-((2-(1,1-difluoroethyl)-6-methylpyrimidin-4-yl)amino)-[2,3′-bipyridin]-6′-yl)-3-methylurea]	–	–	≤ 10 nM	≤ 10 nM	–
CC(=O)Nc1cc(Nc2cc(C)nc(C(C)(F)F)n2)c(-c2ncc(CN3CCCC3)s2)cn1 [Example 738, N-(4-((2-(1,1-difluoroethyl)-6-methylpyrimidin-4-yl)amino)-5-(5-(pyrrolidin-1-ylmethyl)thiazol-2-yl)pyridin-2-yl)acetamide]	–	–	≤ 10 nM	≤ 10 nM	–
CC(=O)Nc1cc(Nc2cc(C)nc(C(C)(F)F)n2)c(-c2cnc(C(C)N(C)C)cn2)cn1 (centres unmarked) [Example 741, N-(4-((2-(1,1-difluoroethyl)-6-methylpyrimidin-4-yl)amino)-5-(5-(1-(dimethylamino)ethyl)pyrazin-2-yl)pyridin-2-yl)acetamide]	–	–	≤ 10 nM	≤ 10 nM	–
CC(=O)Nc1cc(Nc2cccc(C(C)(F)F)n2)c(-c2ccn(C)n2)cn1 [Example 147, N-(4-((6-(1,1-difluoroethyl)pyridin-2-yl)amino)-5-(1-methyl-1H-pyrazol-3-yl)pyridin-2-yl)acetamide]	–	–	≤ 10 nM	–	≤ 10 nM
CC(=O)Nc1cc(Nc2ccnc(C(C)(F)F)n2)c(-c2ccc(CNC3CCOCC3)cn2)cn1 [Example 883]	≤ 10 nM	≤ 10 nM	–	–	–
CC(=O)Nc1cc(Nc2cncc(C(C)(C)F)n2)c(-c2ncc(F)cn2)cn1 [Example 189, N-(4-((6-(2-fluoropropan-2-yl)pyrazin-2-yl)amino)-5-(5-fluoropyrimidin-2-yl)pyridin-2-yl)acetamide]	–	–	10 to 100 nM	–	10 to 100 nM
